# Measured values: patent publication US10689377B2 (Mirati Therapeutics, Inc., priority 2017, dated 2020)
# Where a name gives a salt, the structure may show the parent alone.
# Target: KRas G12C (Homo sapiens, UniProt P01116, G12C)
# Experiment: Cellular inhibition of KRas G12C measured by Phospho-ERK in NCI-H358 cells
# Assay type: cell-based
# Conditions: pERK(Thr202/Tyr204) normalized with GAPDH, NCI-H358 cells, 3 hours; read-out: IC50
# Description: Cells were plated in poly-D-Lysine coated 96-well plates at a concentration of 50,000 cells/well and allowed to attach for 8-12 hours. Diluted compounds were then added at a final concentration of 0.5% DMSO. After 3 hours, the medium was removed, 150 μL of 4% formaldehyde was added and the plates were incubated for 20 minutes. The plates were washed with PBS, and permeabilized using 150 μL of ice cold 100% methanol for 10 minutes. Non-specific antibody binding to the plates was blocked using 100 μL Licor Blocking Buffer (Li-Cor Biotechnology, Lincoln Nebr.) for 1 hour at room temperature. Positive control samples and samples lacking cells were parallel processed with test samples as standards.
# The amount Phospho-ERK was determined using an antibody specific for the phosphorylated form of ERK and compared to the amount of GAPDH. […] The plates were incubated for 2 hours at room temperature. The plates were washed with PBS+0.05% Tween 20.
# Secondary antibodies used to visualize primary antibodies were added as follows: Anti-rabbit-680 diluted 1:1000 and Anti-mouse-800 diluted 1:1000 in Licor Block+0.05% Tween 20 and incubated for 1 hour at room temperature. The plates were washed with PBS+0.05% Tween 20. A 100 μL aliquot of PBS was added to each well and the plates were read on a LICOR AERIUS plate reader.
# The pERK(Thr202/Tyr204) signal was normalized with the GAPDH signal and percent of DMSO control values were calculated. IC50 values were generated using a 4 parameter fit of the dose response curve. Key: “A”≥0.0001-≤1 μM; “B”>1 μM and ND=not determined.
# Sequence of KRas G12C (P01116 1-188 isoform P01116-2 G12C): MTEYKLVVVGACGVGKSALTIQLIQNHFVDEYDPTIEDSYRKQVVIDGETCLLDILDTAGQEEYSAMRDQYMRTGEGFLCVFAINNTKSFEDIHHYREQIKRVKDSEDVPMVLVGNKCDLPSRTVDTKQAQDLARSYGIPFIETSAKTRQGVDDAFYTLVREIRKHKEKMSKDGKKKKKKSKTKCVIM
row,Compound,IC50 [nM]
1,"C=CC(=O)N1CCN(c2nc(OCCN(C)C)nc3c2CCN(c2cc(O)cc4ccccc24)C3)C[C@H]1C [Example 15, (R)-1-(4-(2-(2-(dimethylamino)ethoxy)-7-(3-hydroxynaphthalen-1-yl)-5,6,7,8-tetrahydropyrido[3,4-d]pyrimidin-4-yl)-2-methylpiperazin-1-yl)prop-2-en-1-one]",> 1000
2,"Cc1cccc2cccc(N3CCc4c(nc(OC[C@@H]5CCCN5C)nc4N4CCN(C(=O)/C=C/CN5CCOCC5)[C@@H](CC#N)C4)C3)c12 [Example 460, 2-[(2S)-4-[7-(8-methyl-1-naphthyl)-2-[[(2S)-1-methylpyrrolidin-2-yl]methoxy]-6,8-dihydro-5H-pyrido[3,4-d]pyrimidin-4-yl]-1-[(E)-4-morpholinobut-2-enoyl]piperazin-2-yl]acetonitrile]",0.1 to 1000
3,"C=CC(=O)N1CCN(c2nc(OC[C@H]3CCCN3CCO)nc3c2CCN(c2cccc4ccccc24)C3)CC1CC#N (stereo partly drawn) [Example 304, 2-[4-[2-[[(2R)-1-(2-hydroxyethyl)pyrrolidin-2-yl]methoxy]-7-(1-naphthyl)-6,8-dihydro-5H-pyrido[3,4-d]pyrimidin-4-yl]-1-prop-2-enoyl-piperazin-2-yl]acetonitrile]",0.1 to 1000
4,"C=CC(=O)N1CCN(c2nc(OC[C@@H]3CCCN3CCO)nc3c2CCN(c2cccc4ccccc24)C3)C[C@@H]1CC#N [Example 341, 2-((S)-1-acryloyl-4-(2-(((S)-1-(2-hydroxyethyl)pyrrolidin-2-yl)methoxy)-7-(naphthalen-1-yl)-5,6,7,8-tetrahydropyrido[3,4-d]pyrimidin-4-yl)piperazin-2-yl)acetonitrile]",0.1 to 1000
5,"C/C=C/C(=O)N1CCN(c2nc(OC[C@@H]3CCCN3C)nc3c2CCN(c2cccc4ccccc24)C3)CC1CC#N (stereo partly drawn) [Example 293, 2-[1-[(E)-but-2-enoyl]-4-[2-[[(2S)-1-methylpyrrolidin-2-yl]methoxy]-7-(1-naphthyl)-6,8-dihydro-5H-pyrido[3,4-d]pyrimidin-4-yl]piperazin-2-yl]acetonitrile]",0.1 to 1000
6,"C=CC(=O)N1CCN(c2nc(OC[C@@H]3CCCN3C)nc3c2CCN(c2cccc4ccccc24)C3)[C@H](C)C1 [Example 353, 1-[(3R)-3-methyl-4-[2-[[(2S)-1-methylpyrrolidin-2-yl]methoxy]-7-(1-naphthyl)-6,8-dihydro-5H-pyrido[3,4-d]pyrimidin-4-yl]piperazin-1-yl]prop-2-en-1-one]",> 1000
7,C=CC(=O)N1CCN(c2nc(OCCN3CCC(F)(F)CC3)nc3c2CCN(c2cccc4cccc(Cl)c24)C3)C[C@@H]1CC#N [Example 454],0.1 to 1000
8,"C=CC(=O)N1CCN(c2nc(OCCCN3CCOCC3)nc3c2CCN(c2cc(O)cc(C4CC4)c2)C3)CC1 [Example 41, 1-(4-(7-(3-cyclopropyl-5-hydroxyphenyl)-2-(3-morpholinopropoxy)-5,6,7,8-tetrahydropyrido[3,4-d]pyrimidin-4-yl)piperazin-1-yl)prop-2-en-1-one trifluoroacetate]",> 1000
9,"C=CC(=O)N1CCN(c2nc(OCCCN3CCOCC3)nc3c2CCN(c2cc(O)ccc2SC(F)(F)F)C3)CC1 [Example 214, 1-(4-(7-(5-hydroxy-2-((trifluoromethyl)thio)phenyl)-2-(3-morpholinopropoxy)-5,6,7,8-tetrahydropyrido[3,4-d]pyrimidin-4-yl)piperazin-1-yl)prop-2-en-1-one]",> 1000
10,"C=CC(=O)N1CCN(c2nc(O[C@H](C)CN(C)C)nc3c2CCN(c2cc(O)ccc2OC(F)(F)F)C3)CC1 [Example 78, (R)-1-(4-(2-((1-(dimethylamino)propan-2-yl)oxy)-7-(5-hydroxy-2-(trifluoromethoxy)phenyl)-5,6,7,8-tetrahydropyrido[3,4-d]pyrimidin-4-yl)piperazin-1-yl)prop-2-en-1-one]",> 1000
11,"C=CC(=O)N1CCN(c2nc(OC(C)CNC)nc3c2CCN(c2cc(O)cc4ccccc24)C3)CC1 (centres unmarked) [Example 70, 1-(4-(7-(3-hydroxynaphthalen-1-yl)-2-((1-(methylamino)propan-2-yl)oxy)-5,6,7,8-tetrahydropyrido[3,4-d]pyrimidin-4-yl)piperazin-1-yl)prop-2-en-1-one]",> 1000
12,"C=CC(=O)N1CCN(c2nc(OCCN3C[C@@H]4CC[C@H]3C4)nc3c2CCN(c2cc(O)cc4ccccc24)C3)CC1 [Example 77, 1-(4-(2-(2-((1S,4R)-2-azabicyclo[2.2.1]heptan-2-yl)ethoxy)-7-(3-hydroxynaphthalen-1-yl)-5,6,7,8-tetrahydropyrido[3,4-d]pyrimidin-4-yl)piperazin-1-yl)prop-2-en-1-one]",0.1 to 1000
13,"C=C(F)C(=O)N1CCN(c2nc(OCC3CCCC3)nc3c2CCN(c2cccc4cccc(C)c24)C3)C[C@@H]1CC#N [Example 603, 2-[(2S)-4-[2-(cyclopentylmethoxy)-7-(8-methyl-1-naphthyl)-6,8-dihydro-5H-pyrido[3,4-d]pyrimidin-4-yl]-1-(2-fluoroprop-2-enoyl)piperazin-2-yl]acetonitrile]",> 1000
14,"C=CC(=O)N1CCN(c2nc(OCCN3CCS(=O)(=O)CC3)nc3c2CCN(c2cc(O)cc4ccccc24)C3)CC1 [Example 33, 1-(4-(2-(2-(1,1-dioxidothiomorpholino)ethoxy)-7-(3-hydroxynaphthalen-1-yl)-5,6,7,8-tetrahydropyrido[3,4-d]pyrimidin-4-yl)piperazin-1-yl)prop-2-en-1-one trifluoroacetate]",> 1000
15,"C=CC(=O)N1CCN(c2nc(OC[C@@H]3CCCN3C)nc3c2CCN(c2cccc4ccccc24)C3)C[C@@H]1CCOC [Example 433, 1-((S)-2-(2-methoxyethyl)-4-(2-(((S)-1-methylpyrrolidin-2-yl)methoxy)-7-(naphthalen-1-yl)-5,6,7,8-tetrahydropyrido[3,4-d]pyrimidin-4-yl)piperazin-1-yl)prop-2-en-1-one]",> 1000

# Other lines, results leading:
row,IC50 [nM],Compound
1,0.1 to 1000,"C=CC(=O)N1CCN(c2nc(OC[C@@H]3CCN(C)C3)nc3c2CCN(c2ccccc2C(F)(F)F)C3)CC1CC#N (stereo partly drawn) [Example 281, 2-(1-acryloyl-4-(2-(((R)-1-methylpyrrolidin-3-yl)methoxy)-7-(2-(trifluoromethyl)phenyl)-5,6,7,8-tetrahydropyrido[3,4-d]pyrimidin-4-yl)piperazin-2-yl)acetonitrile]"
2,> 1000,"C=CC(=O)N1CCN(c2nc(OC[C@@H]3CCCN3C)nc3c2CCN(c2cccc4ncccc24)C3)CC1CC#N (stereo partly drawn) [Example 264, 2-[4-[2-[[(2S)-1-methylpyrrolidin-2-yl]methoxy]-7-(5-quinolyl)-6,8-dihydro-5H-pyrido[3,4-d]pyrimidin-4-yl]-1-prop-2-enoyl-piperazin-2-yl]acetonitrile]"
3,0.1 to 1000,"C=CC(=O)N1CCN(c2nc(OC[C@@H]3CCCN3C)nc3c2CCN(c2cccc(Cl)c2Cl)C3)C[C@@H]1CC#N [Example 421, 2-((S)-1-acryloyl-4-(7-(2,3-dichlorophenyl)-2-(((S)-1-methylpyrrolidin-2-yl)methoxy)-5,6,7,8-tetrahydropyrido[3,4-d]pyrimidin-4-yl)piperazin-2-yl)acetonitrile]"
4,0.1 to 1000,"CO[C@@H]1C[C@H](COc2nc3c(c(N4CCN(C(=O)/C=C/CO)[C@@H](CC#N)C4)n2)CCN(c2cccc4cccc(C)c24)C3)N(C)C1 [Example 523, 2-[(2S)-1-[(E)-4-hydroxybut-2-enoyl]-4-[2-[[(2R,4R)-4-methoxy-1-methyl-pyrrolidin-2-yl]methoxy]-7-(8-methyl-1-naphthyl)-6,8-dihydro-5H-pyrido[3,4-d]pyrimidin-4-yl]piperazin-2-yl]acetonitrile]"
5,0.1 to 1000,"C=CC(=O)N1CCN(c2nc(OCCN(C)C)nc3c2CCN(c2cc(O)cc4ccccc24)C3)C[C@@H]1CC#N [Example 176, 2-[(2S)-4-[2-[2-(dimethylamino)ethoxy]-7-(3-hydroxy-1-naphthyl)-6,8-dihydro-5H-pyrido[3,4-d]pyrimidin-4-yl]-1-prop-2-enoyl-piperazin-2-yl] acetonitrile]"
6,0.1 to 1000,"C=CC(=O)N1CCN(c2nc(OC[C@@H]3CCCN3C)nc3c2CCN(c2cncc(Cl)c2C(F)(F)F)C3)C[C@@H]1CC#N [Example 385, 2-((S)-1-acryloyl-4-(7-(5-chloro-4-(trifluoromethyl)pyridin-3-yl)-2-(((S)-1-methylpyrrolidin-2-yl)methoxy)-5,6,7,8-tetrahydropyrido[3,4-d]pyrimidin-4-yl)piperazin-2-yl)acetonitrile]"
7,> 1000,"C=CC(=O)N1CCN(c2nc(OC[C@@H]3CCCN3C)nc3c2CCN(c2ccncc2C(F)(F)F)C3)CC1CC#N (stereo partly drawn) [Example 375, 2-(1-acryloyl-4-(2-(((S)-1-methylpyrrolidin-2-yl)methoxy)-7-(3-(trifluoromethyl)pyridin-4-yl)-5,6,7,8-tetrahydropyrido[3,4-d]pyrimidin-4-yl)piperazin-2-yl)acetonitrile]"
8,0.1 to 1000,"C=CC(=O)N1CCN(c2nc(OC[C@@H]3CCCN3C)nc3c2CCN(c2cccc(C)c2C(F)(F)F)C3)C[C@@H]1CC#N [Example 364, 2-[(2S)-4-[2-[[(2S)-1-methylpyrrolidin-2-yl]methoxy]-7-[3-methyl-2-(trifluoromethyl)phenyl]-6,8-dihydro-5H-pyrido[3,4-d]pyrimidin-4-yl]-1-prop-2-enoyl-piperazin-2-yl]acetonitrile]"
